Data set [1] deals with human telomerase reverse transcriptase (hTERT) isoforms. The experiment in a line: Laboratory correlative study: human telomerase reverse transcriptase (hTERT) isoforms. In kind it is in vivo. Particulars: treated myelofibrosis patients. The procedure: (§1) Imetelstat sodium was administered by a 2-hour intravenous infusion (9.4 mg/kg) every three weeks (cohort A) or weekly×3 followed by every three weeks (cohort B). In addition, patient samples were screened for mutations in ASXL1, SRSF2, SF3B1, and U2AF1 by DNA sequencing. Quantitative PCR was used to measure JAK2V617F burden (assay sensitivity 0.01%). Laboratory correlative studies included analyses of granulocyte telomere length, mononuclear cell telomerase activity, and the presence of human telomerase reverse transcriptase (hTERT) isoforms.

Data set [2] concerns granulocyte telomere length. Kind of data set: Laboratory correlative study: granulocyte telomere length. In kind it is in vivo, human. The conditions noted are these: treated myelofibrosis patients. As for the experimental part: as §1
The subject of data set [3] is patients with high or intermediate-2 risk myelofibrosis. Kind of data set: Clinical study (NCT01731951): adverse events by common terminology criteria (Version 4.03). The data set is classed as in vivo, human. The procedure:
(§2) In an investigator-sponsored single-center study (ClinicalTrials.gov, Identifier: NCT01731951), imetelstat sodium was administered to patients with high or intermediate-2 risk myelofibrosis. Adverse events were monitored by common terminology criteria (Version 4.03), and responses were monitored by the International Working Group criteria. Eligibility criteria included platelets≥50×10^9/L.
as §1
(§3) Thirty-three patients were accrued. The first 18 patients who were enrolled and followed for a minimum of three months or discontinued were assessed herein: eleven for cohort A, and seven for cohort B; 44% primary myelofibrosis, 33% post-PV myelofibrosis and 22% post-ET myelofibrosis. The median age was 68 years, and the baseline risk was high in 56% of the patients and intermediate-2 in 44% of the patients. Seven patients were transfusion-dependent. Median spleen size was 13 cm, and eleven patients had constitutional symptoms. Karyotype was abnormal in seven patients, and 89% were JAK2-mutated. Fifteen patients (83%) were previously treated, including seven with a JAK inhibitor and three with pomalidomide.

The subject of data set [4] is mononuclear cell telomerase activity. Kind of data set: Laboratory correlative study: mononuclear cell telomerase activity. The data set is classed as in vivo, human. Particulars: treated myelofibrosis patients. As for the experimental part:
as §1

Data set [5] concerns patients with high or intermediate-2 risk myelofibrosis. Kind of data set: Investigator-sponsored single-center clinical study (NCT01731951): responses by International Working Group criteria. The data set is classed as in vivo, human. The procedure: as §2, §1, §3
[6] abbreviates: cohort A (9.4 mg/kg every three weeks).
Setting [7] is: cohort B (9.4 mg/kg weekly x3 followed by every three weeks).
Setting [8] is: first 18 patients, 9.4 mg/kg iv.

[nps] = N3'-P5' thiophosphoramidate linkage (3'-amino-3'-deoxy nucleosides); {Palm} = O-[2-hydroxy-3-(hexadecanoylamino)propyl] group (palmitoyl lipid)

Take “5′-[O-[2-hydroxy-3-[(1-oxohexadecyl)amino]propyl] phosphorothioate]-d(3′-amino-3′-deoxy-P-thio)(T-A-G-G-G-T-T-A-G-A-C-A-A) (SEQ ID NO:1) sodium salt (13) (TAGGGTTAGACAA; all [nps], 5' {Palm}*, sugars by position and methylation of C not given here; 3'-amino-3'-deoxy nucleosides, sodium salt) [imetelstat sodium, sodium salt of imetelstat, a synthetic lipid-conjugated, 13-mer oligonucleotide N3′ P5′-thio-phosphoramidate]”: in data set [1], the “effect on hTERT isoform pattern” value was “alteration of the hTERT isoform pattern”. Moreover, the “effect on telomere length” value in data set [2] is given as “shortening of telomere length”. Moreover, in data set [3] (setting [6]), the grade-3 anemia worked out at 9%, the grade-3 thrombocytopenia is 27% and the “grade-4 treatment-related adverse events” value was “no grade-4 treatment-related adverse events”. For the same substance, in data set [3] (setting [7]), the grade-3 anemia entry is recorded as “one”, the grade-3 neutropenia entry is “one”, the grade-3 thrombocytopenia result is reported as “one” and the grade-4 thrombocytopenia amounted to 29%. The “dose reduction necessary because of grade 3 or 4 myelosuppression” value in data set [3] (first 18 patients) came out at 11%. The “patients remaining on treatment” value in data set [3] (median follow-up of 3.2 months, first 18 patients) amounted to 89%. This substance yielded a grade-3/4 myelosuppression in data set [3] (patients with an unmutated spliceosome genotype) of 25%. This substance displayed a grade-3/4 myelosuppression in data set [3] (spliceosome-mutated patients) of 67%. In addition, the “effect on telomerase activity” value in data set [4] is “suppression of telomerase activity”. Further, the complete molecular responses result in data set [5] (CR patients, U2AF1Q157P and 10% JAK2V617F, SF3B1K666E and 50% JAK2V617F) is reported as “two”. For the same substance, in data set [5] (a third CR patient), the “reduction in U2AF1 469_insAGTATG mutation” value is given as above 50%. For the same substance, in data set [5] (among thirteen patients with leukocytosis), the “patients with leukocytosis who normalized their count or had a >50% reduction” value came to 77%. Besides, in data set [5] (first 18 patients), the “CR patients transfusion-dependent at baseline who became transfusion-independent” value was “Two” and the “complete or partial resolution of leukoerythroblastosis” value is 61%. In addition, in data set [5] (first 18 patients, 9.4 mg/kg 2-hour intravenous infusion, cohorts A and B), the overall response rate is on record as 44%. Also, in data set [5] (setting [8]), the “CR patients with reversal of bone marrow fibrosis and recovery of normal megakaryocyte morphology” value is 22%; the “partial response (PR), number of patients” value stood at 1 patients; the “patients who met the bone marrow and peripheral blood morphologic criteria for complete response (CR) or partial response (PR)” value worked out at 28%. Also, the “patients with clinical improvement” value in data set [5] (first 18 patients, pending validation of response duration and resolution of drug-induced grade-1 thrombocytopenia) is reported as “three”. The “patients achieving CR” value in data set [5] (six patients with a spliceosome mutated genotype) is 50%. For the same substance, the “patients achieving CR” value in data set [5] (twelve patients with an unmutated spliceosome genotype) was 8%.
As for “imetelstat: telomerase inhibitor; synthetic lipid-conjugated, 13-mer oligonucleotide N3′ P5′-thio-phosphoramidate (DNA TAGGGTTAGACAA; listed as DNA, chemistry not fully specified)”, the “likelihood of complete or partial remission” value in data set [5] (ASXL1-mutated cases among the 33 study patients) came to 0%; in data set [5] (ASXL1-unmutated cases among the 33 study patients) it was 36%.

The values are drawn from US11123359B2, “Methods and materials for treating hematological malignancies” (Mayo Foundation for Medical Education and Research, priority 2013, dated 2021).
